Patent US20250288599A1, “PHARMACEUTICAL COMPOSITIONS AND METHODS FOR TREATING OSTEOARTHRITIS” (INSIGNIA PHARMACEUTICALS, LLC, priority 2024, published 2025)
Read-outs that look alike come from different tables or passages of the source.

What was measured:
[1] = tested on: PGE2 release from normal human chondrocytes; assay: IL-1β-induced PGE2 release from normal human chondrocyte monolayers, 48 h, competitive EIA; format: cell-based
Protocol: Mechanical stress and inflammation are thought to sustain catabolic cycles of extracellular matrix deterioration during osteoarthritis. In particular, PGE2 correlates with increased protease production and discomfort or pain in osteoarthritis.
After 48-hours, PGE2 release was evaluated by competitive EIA, and relative potency was calculated versus dose responses of Dex alone.
After 48 hours, PGE2 release was evaluated by competitive enzyme immunoassay (EIA), and relative potency was calculated versus Dex alone.
Lac is commonly thought to be simply an end-product of anaerobic glycolysis; however, it may also have immunomodulatory effects and promote protein modifications that alter gene expression. The goal of this experiment was to determine how Lac supplementation affects early-phase, inflammatory, and late-stage redifferentiation in chondrocyte models. To establish how Lac may influence inflammation early in osteoarthritis, monolayers of normal human chondrocytes were exposed to Lac dose responses of up to 100 millimolar, concurrently with 0.5 nanograms per milliliter IL-1β for 48 hours. The release of PGE2 was then quantified using competitive EIA. To investigate how Lac affects transcriptional programs in dedifferentiated osteoarthritic chondrocytes, monolayer cultures and micromass pellets were treated for 14 days with 100 millimolar final concentrations of Lac, with and without 10 nanograms per milliliter transforming growth factor beta 3 (TGF-β3). Total RNA was then isolated, and relative expression of SOX9 or Col2a1 was calculated using qRT-PCR, normalized to GAPDH.

[2] = tested on: PGE2 release from normal human chondrocytes; assay: IL-1β-induced PGE2 release from normal human chondrocytes, 24 h, DA vs decanoate working solutions; format: cell-based; conditions: Homo sapiens, Chondrocyte, 25 micromolar, prepared in medium
Protocol: The activity of DA working solutions prepared in either saline or lactated ringer's (LR) isotonic solutions was assessed. […] In addition, concentrated decanoate working solutions in saline or LR were prepared and added to the cultures at a final concentration of 25 micromolar. PGE2 release was then compared to matching points on the DA or decanoate medium as well as saline and LR controls.

[3] = tested on: MCP1 in osteoarthritic human synoviocytes; assay: IL-1β-induced MCP1 in osteoarthritic-synoviocytes; format: cell-based; conditions: IL-1β 0.5 ng/mL; 0.5, 0.8 or 1 millimolar DA; 0.1-100 nanomolar Dex
[4] = tested on: PGE2 release from osteoarthritic human synoviocytes; assay: IL-1β-induced PGE2 and PGD2 release from osteoarthritic-synoviocytes; format: cell-based; conditions: for IC50: Homo sapiens, read-out: IC50 for PGE2 inhibition
[5] = tested on: IL-1β release from human THP1 macrophages; assay: Two-hit (LPS then ATP) inflammasome activation model, IL-1β release from THP1 macrophages; format: cell-based; conditions: for IC50: Homo sapiens
Excerpt: The proinflammatory cytokine, IL-1β, is released from cells upon activation of the inflammasome, a multi-protein proinflammatory complex. A two-hit model of inflammasome activation in THP1 macrophages was developed that entails an overnight stimulation with LPS followed by a second proinflammatory stimulus, extracellular ATP, which drives inflammasome assembly and subsequent IL-1β release from the cells into the media.

[6] = tested on: SOX9 expression in human osteoarthritic chondrocytes; assay: SOX9 relative expression in high and low passage osteoarthritic chondrocytes, 7, 14 or 28 days; format: cell-based; conditions: high passage, dedifferentiated osteoarthritic chondrocytes with TGF-β3, 14 days
Excerpt: Media was exchanged bi-weekly. […] SOX9 is a transcription factor vital to the development and maintenance of cartilage and is required for chondrogenesis. SOX9 promotes chondrocyte survival and transcriptionally activates cartilage-specific genes. SOX9 is repressed in hypertrophic chondrocytes (i.e. terminally differentiated osteoblast-like cells).

[7] = tested on: prostaglandin I2 (PGI2) in primary human synoviocytes; assay: PGI2 in IL-1β-stimulated primary human osteoarthritic synoviocytes, 24 h; format: cell-based; conditions: IL-1β 1 ng/ml
Protocol: FIG. 25 is a bar graph that depicts the concentration of prostaglandin I2 (PGI2) present in primary human synoviocytes from patients with osteoarthritis that were stimulated with 1 ng/ml final concentration of IL-1β for 24 hours in the presence of varying concentrations of DA and Dex in view of controls. PGI2 concentration response mirrored PGE2 concentrations after DA treatment. […] It is noted that prostaglandin H2 (PGH2) was also tested and was not detected in either cell culture media or from cell lysates. Without being bound by theory, it is believed that PGH2 is an intermediate and is (near) immediately converted into downstream prostaglandins and therefore levels of PGH2 are not detectable.

Cyclooxygenase-2 (COX-2) = Cyclooxygenase-2 (COX-2) (Homo sapiens, UniProt P35354); assay: COX-2 inhibitor screen; format: biochemical; conditions: any of the concentrations tested; Celecoxib positive control
Cyclooxygenase-2 (COX-2), sequence (P35354 18-604, species assumed): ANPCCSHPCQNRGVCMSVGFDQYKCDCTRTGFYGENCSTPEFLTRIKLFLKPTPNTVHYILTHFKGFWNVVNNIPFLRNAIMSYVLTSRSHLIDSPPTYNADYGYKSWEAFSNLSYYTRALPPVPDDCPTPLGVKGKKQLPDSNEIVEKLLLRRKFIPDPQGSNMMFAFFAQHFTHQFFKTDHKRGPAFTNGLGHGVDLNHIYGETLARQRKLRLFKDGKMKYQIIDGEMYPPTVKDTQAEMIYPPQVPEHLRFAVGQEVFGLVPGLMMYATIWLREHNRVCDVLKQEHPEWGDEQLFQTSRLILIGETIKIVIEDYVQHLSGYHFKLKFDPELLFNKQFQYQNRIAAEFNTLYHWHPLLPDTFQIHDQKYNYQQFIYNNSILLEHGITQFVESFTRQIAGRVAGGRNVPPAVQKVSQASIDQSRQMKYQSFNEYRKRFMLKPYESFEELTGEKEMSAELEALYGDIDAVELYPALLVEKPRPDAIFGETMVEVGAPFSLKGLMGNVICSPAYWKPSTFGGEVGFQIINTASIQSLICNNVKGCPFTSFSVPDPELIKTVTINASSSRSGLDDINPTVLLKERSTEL
Excerpt: Celecoxib (Celebrex) was used as a positive control for COX-2.

[8] = biological target: PLA2 isolated from bee venom (Apis mellifera, UniProt P00630); format: biochemical
PLA2 isolated from bee venom, sequence (P00630 34-167 limits assumed): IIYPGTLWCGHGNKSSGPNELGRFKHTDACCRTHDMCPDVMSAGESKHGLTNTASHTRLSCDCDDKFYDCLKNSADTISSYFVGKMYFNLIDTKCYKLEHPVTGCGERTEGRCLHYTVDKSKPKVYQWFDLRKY

[9] = tested on: PGE2 in primary human osteoarthritic synoviocytes; assay: Early, pretreatment and intracellular vs secreted PGE2 in IL-1β-stimulated human osteoarthritic synoviocytes; format: cell-based
Protocol: The concentrations in FIG. 31A were measured at hour three.
Cells were also treated with IL-IRA which inhibits IL-1β by binding the cell-surface […] and inhibiting its dimerization with the IL-1 receptor (IL-1R), effectively blocking IL-1β signaling.
FIG. 33 illustrates two bar graphs that depict the concentrations of PGE2 inside of the cell versus PGE2 that was secreted into the cell culture media. Specifically, the bar graph labeled “Intracellular” illustrates the concentrations of PGE2 inside of the cell and the bar graph labeled “Supernatent” illustrates the concentration of PGE2 that was secreted into the cell culture media. Synoviocytes were stimulated with IL-1β for 6 hours and then cell culture media harvested separately along with collecting cell lysates. […] To test this, the PGE2 concentrations inside of the cells and in the cell culture media were measured to compare them directly to each other.

[10] = tested on: arachidonic acid (AA) in primary human synoviocytes; assay: Early arachidonic acid in IL-1β-stimulated primary human osteoarthritic synoviocytes, 3 h; format: cell-based; conditions: IL-1β 1 ng/mL
Protocol: Early concentrations of arachidonic acid (AA) present in primary human synoviocytes from patients with osteoarthritis that were stimulated with 1 ng/mL final concentration interleukin 1-beta (β) for 3 hours in the presence of varying concentrations of Dex and DA in view of controls are depicted in FIG. 32. The concentrations of AA in FIG. 32 were normalized to total protein content from the cell lysates using bicinchoninic acid (BCA).

[11] = tested on: Col2a1 expression in dedifferentiated osteoarthritic chondrocytes; assay: Col2a1 relative expression in high passage osteoarthritic chondrocyte monolayer model with TGF-β; format: cell-based, human; conditions: TGF-β added to the model; 1 mM Try, 0.5 mM DA
Protocol: (§1) These compounds were tested in a high passage osteoarthritic chondrocyte monolayer model, alone or in combination with other agents, for both transcriptional regulation of standard markers and IL-1β-induced PGE2 production.

[12] = tested on: MMP13 expression in dedifferentiated osteoarthritic chondrocytes; assay: MMP13 regulation in high passage osteoarthritic chondrocyte monolayer model, 28 days; format: cell-based, human; conditions: 28 days of treatment; 1 mM Try, 0.5 mM DA
Protocol: as §1

[13] = cited from earlier work
[14] = tested on: MMP13 expression in human osteoarthritic chondrocytes; assay: MMP13 relative expression in human osteoarthritic chondrocytes treated with DA and/or Try; format: cell-based; conditions: 28-day monolayer culture; 0.5 mM DA, 1 mM Try
Protocol: (§2) Total mRNA was then isolated at the indicated times, and qRTPCR was performed with primers specific for MMP13, Col2a1, and the housekeeping gene GAPDH. Relative expression was then calculated versus controls, with normalization to GAPDH.

[15] = tested on: Col2a1 expression in human osteoarthritic chondrocytes; assay: Col2a1 relative expression in human osteoarthritic chondrocytes treated with DA and/or Try with TGF-β3; format: cell-based; conditions: 14-day monolayer culture with TGF-β3; 0.5 mM DA, 1 mM Try
Protocol: as §2

Structure (SMILES): CCCCCCCCCC(=O)O [DA, decanoic acid]
- inhibition at 500 µM ([1]; Homo sapiens, Chondrocyte, DA 500 micromolar final, IL-1β 500 pg/mL, 48 h): 100%
- final concentration at which significant inhibition of PGE2 release was observed ([1]; p-value≤0.05 versus medium controls): 6 µM
- inhibition at 25 µM [2]: 62.4%
- effect on MCP1 [3]: reduction in MCP1 in a dose dependent manner
- increase of DA potency by 100 picomolar Dex [4]: 2.2 ×
- IC50 ([4]; DA alone, IL-1β 0.5 ng/mL): 19.4 µM
- IC50 ([4]; DA in the presence of 100 picomolar Dex): 8.62 µM
- DA concentration above which PGE2 and PGD2 release was inhibited ([4]; IL-1β 0.5 ng/mL): above 1 micromolar
- increased DA potency by 25 nanomolar Dex [5]: 1.917 ×
- IC50 ([5]; THP-1, DA alone, 0.02 to 1.8 millimolar, three independent experiments): 125 µM
- IC50 ([5]; THP-1, DA with addition of 25 nanomolar Dex): 65 µM
- IC50 ([5]; THP-1, repeated experiments comparing DA to sodium decanoate): 172 µM
- SOX9 expression [6]: increased SOX9 transcription
- secreted PGI2 levels [7]: decreases secreted PGI2 levels
- inhibition of COX-2 activity (Cyclooxygenase-2 (COX-2)): no observed inhibition
- PLA2 activity inhibition [8]: no significant signs of PLA2 activity inhibition
- PGE2 release after pretreatment (5 minutes, 1 hour, or 2 hours) then IL-1β 10 minutes or 1 hour ([9]; 200 nanomolar DA or 500 nanograms/milliliter IL-1RA, IL-1β 1 nanogram/milliliter): blocked the low-level activation
- intracellular versus secreted PGE2 ([9]; IL-1β 1 ng/ml, 6 hours): causes PGE2 to build up intracellularly instead of getting secreted
- PGE2 concentration ([9]; measured at hour three, IL-1β 1 ng/mL): less than 5000 pg/ml
- AA concentration normalized to total protein [10]: lower than that of the control with IL-1β
- Col2a1 regulation [11]: 26 fold
- MMP13 regulation [12]: 1.12 fold
- pKa (negative log of acid dissociation constant) [13]: about 4.9

Structure (SMILES): N[C@@H](Cc1c[nH]c2ccccc12)C(=O)O [Try, tryptophan]
- Col2a1 regulation [11]: −1.36 fold
- MMP13 regulation [12]: −3.32 fold
- Observed Relative expression of MMP13 [14]: −2.6 fold
- Observed Relative expression of Col2a1 [15]: −1.4 fold
